Measured values as given in ChEMBL document CHEMBL1201862, “PubChem BioAssay data set” (2004).
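In this assay, cells in 96-well plates receive the compound at five concentrations for 48 hours. Endpoints are linearly interpolated between the surrounding concentrations. At the GI50, growth is halved.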 The source made the active and inactive calls. Cut-off read from the data, not from the text of the source: active = GI50 up to about 1.1 µM and inactive = higher.

Legend:
Test in all cases: inhibition of tumour cell growth, NCI panel, 48 h
[1] = test system: SK-MEL-5
[2] = test system: NCI-H226
[3] = test system: MDA-MB-231
[4] = test system: Hs-578T
[5] = test system: MDA-N
[6] = test system: EKVX
[7] = test system: SR
[8] = test system: A549
[9] = test system: DU-145
[10] = test system: LOX IMVI
[11] = test system: MOLT-4
[12] = test system: TK-10
[13] = test system: SF-268
[14] = test system: PC-3
[15] = test system: COLO 205
[16] = test system: NCI/ADR-RES
[17] = test system: T47D
[18] = test system: DLD-1
[19] = test system: DMS-114

Row | SMILES | GI50 [1] | GI50 [2] | GI50 [3] | GI50 [4] | GI50 [5] | GI50 [6] | GI50 [7] | GI50 [8] | GI50 [9] | GI50 [10] | GI50 [11] | GI50 [12] | GI50 [13] | GI50 [14] | GI50 [15] | GI50 [16] | GI50 [17] | GI50 [18] | GI50 [19]
1 | C[As+](C)(c1ccc(Br)c([N+](=O)[O-])c1)c1ccc(Br)c([N+](=O)[O-])c1 | 9.12 µM (inactive) | > 100 µM (inactive) | > 100 µM (inactive) | > 100 µM (inactive) | > 100 µM (inactive) | > 100 µM (inactive) | > 100 µM (inactive) | > 100 µM (inactive) | > 100 µM (inactive) | > 100 µM (inactive) | > 100 µM (inactive) | > 100 µM (inactive) | > 100 µM (inactive) | > 100 µM (inactive) | > 100 µM (inactive) | > 100 µM (inactive) | > 100 µM (inactive) | – | –
2 | O=C1C(Cl)C(c2cc3cc(Br)ccc3nc2Cl)N1c1ccc(Cl)cc1 (centres undefined) | 3.21 µM (inactive) | 4.26 µM (inactive) | 3.9 µM (inactive) | 9.2 µM (inactive) | 5.53 µM (inactive) | 4.16 µM (inactive) | 1.64 µM (inactive) | 10.4 µM (inactive) | 6.95 µM (inactive) | 0.906 µM (active) | 3.89 µM (inactive) | 5.24 µM (inactive) | 4.51 µM (inactive) | 5.69 µM (inactive) | 4.89 µM (inactive) | 5.75 µM (inactive) | 6.65 µM (inactive) | – | –
3 | O=C(Nc1ccc(Cl)cc1)c1cc(S(=O)(=O)Nc2n[nH]c(Nc3ccc4ccccc4c3)n2)c(SSc2cc(Cl)c(C(=O)Nc3ccc(Cl)cc3)cc2S(=O)(=O)Nc2n[nH]c(Nc3ccc4ccccc4c3)n2)cc1Cl | 21.3 µM (inactive) | 21.7 µM (inactive) | 18.6 µM (inactive) | 31.8 µM (inactive) | 32.4 µM (inactive) | 42.9 µM (inactive) | 23.7 µM (inactive) | 41.7 µM (inactive) | 24.4 µM (inactive) | 17.5 µM (inactive) | 19.1 µM (inactive) | 27.3 µM (inactive) | 41.4 µM (inactive) | 24.4 µM (inactive) | 18.4 µM (inactive) | 30.8 µM (inactive) | 3.2 µM (inactive) | – | –
4 | CCOC(=O)c1c(N2CCOCC2)[nH]c(=O)c(C(c2c(O)c(C(=O)OCC)c(N3CCOCC3)[nH]c2=O)C(C)C)c1O | > 100 µM (inactive) | > 100 µM (inactive) | > 100 µM (inactive) | 47.9 µM (inactive) | > 100 µM (inactive) | > 100 µM (inactive) | > 100 µM (inactive) | > 100 µM (inactive) | > 100 µM (inactive) | > 100 µM (inactive) | > 100 µM (inactive) | > 100 µM (inactive) | > 100 µM (inactive) | > 100 µM (inactive) | > 100 µM (inactive) | > 100 µM (inactive) | > 100 µM (inactive) | – | –
5 | CN(N=O)C(=O)NNC(=O)N(C)N=O | 67.6 µM (inactive) | > 100 µM (inactive) | > 100 µM (inactive) | > 100 µM (inactive) | > 100 µM (inactive) | 29.2 µM (inactive) | 8.81 µM (inactive) | > 100 µM (inactive) | > 100 µM (inactive) | 44.4 µM (inactive) | 35.2 µM (inactive) | > 100 µM (inactive) | 38.9 µM (inactive) | 90.6 µM (inactive) | 50.1 µM (inactive) | > 100 µM (inactive) | 79.1 µM (inactive) | – | –
6 | COc1ccccc1Nc1nc(N)nc(N)c1N=O | > 100 µM (inactive) | > 100 µM (inactive) | > 100 µM (inactive) | > 100 µM (inactive) | > 100 µM (inactive) | > 100 µM (inactive) | > 100 µM (inactive) | > 100 µM (inactive) | > 100 µM (inactive) | > 100 µM (inactive) | > 100 µM (inactive) | > 100 µM (inactive) | > 100 µM (inactive) | > 100 µM (inactive) | > 100 µM (inactive) | > 100 µM (inactive) | 2.82 µM (inactive) | – | –
7 | C=C(C(=O)OC)c1cc2ccccc2n1S(=O)(=O)c1ccccc1 | 2.14 µM (inactive) | 2.36 µM (inactive) | 1.98 µM (inactive) | 4.11 µM (inactive) | 2.7 µM (inactive) | 12.1 µM (inactive) | 0.815 µM (active) | 3.05 µM (inactive) | 2.69 µM (inactive) | 2.43 µM (inactive) | 2.21 µM (inactive) | 1.57 µM (inactive) | 1.84 µM (inactive) | 1.96 µM (inactive) | 1.95 µM (inactive) | 3.37 µM (inactive) | 1.7 µM (inactive) | – | –
8 | COc1ccc(C(c2ccc3c(c2)OCO3)N2C(=O)CCC2C(=O)O)cc1 (centres undefined) | > 100 µM (inactive) | > 100 µM (inactive) | > 100 µM (inactive) | > 10 µM (inactive) | > 100 µM (inactive) | > 100 µM (inactive) | > 100 µM (inactive) | > 100 µM (inactive) | > 100 µM (inactive) | > 100 µM (inactive) | > 100 µM (inactive) | > 100 µM (inactive) | > 100 µM (inactive) | > 100 µM (inactive) | > 100 µM (inactive) | > 100 µM (inactive) | > 100 µM (inactive) | – | –
9 | CC1(C)O[C@@H](CCl)C[C@@H](C#N)O1 | > 100 µM (inactive) | > 100 µM (inactive) | – | – | – | > 100 µM (inactive) | > 100 µM (inactive) | > 100 µM (inactive) | – | > 100 µM (inactive) | > 100 µM (inactive) | > 100 µM (inactive) | > 100 µM (inactive) | – | > 100 µM (inactive) | – | – | > 100 µM (inactive) | > 100 µM (inactive)
10 | CC(CCCCNC(=O)OC(C)(C)C)NC(=O)NC(C)CCCCNC(=O)OC(C)(C)C (centres undefined) | 30 µM (inactive) | 54 µM (inactive) | > 100 µM (inactive) | > 100 µM (inactive) | 72.6 µM (inactive) | > 100 µM (inactive) | 99.8 µM (inactive) | > 100 µM (inactive) | > 100 µM (inactive) | > 100 µM (inactive) | 41.8 µM (inactive) | 31.3 µM (inactive) | > 100 µM (inactive) | > 100 µM (inactive) | 56.6 µM (inactive) | > 100 µM (inactive) | 83 µM (inactive) | – | –
11 | O=C1OC(c2ccccc2)=N/C1=C\c1ccc(Cl)cc1 | > 100 µM (inactive) | > 100 µM (inactive) | > 100 µM (inactive) | > 100 µM (inactive) | > 100 µM (inactive) | > 100 µM (inactive) | > 100 µM (inactive) | > 100 µM (inactive) | > 100 µM (inactive) | > 100 µM (inactive) | > 100 µM (inactive) | > 100 µM (inactive) | > 100 µM (inactive) | > 100 µM (inactive) | > 100 µM (inactive) | 66.2 µM (inactive) | > 100 µM (inactive) | – | –
12 | CC(=O)NC1C(OC(C)C(=O)NC(C(=O)NC(CCC(=O)NCCCNC2c3ccccc3Nc3cccc([N+](=O)[O-])c32)C(N)=O)C(C)C)C(O)C(CO)OC1(C)OCc1ccccc1 (centres undefined) | 0.198 µM (active) | 1.13 µM (inactive) | 0.54 µM (active) | 1.64 µM (inactive) | 0.634 µM (active) | 1.54 µM (inactive) | 0.215 µM (active) | 0.399 µM (active) | 0.264 µM (active) | 1.47 µM (inactive) | 0.355 µM (active) | 0.133 µM (active) | 0.998 µM (active) | 1.37 µM (inactive) | 0.556 µM (active) | 2.02 µM (inactive) | 1.73 µM (inactive) | – | –
13 | COCN1C(N)=C(C(=O)OC(C)(C)C)C2=CC(=O)C=CC21C (centres undefined) | 15.3 µM (inactive) | 16.8 µM (inactive) | 15.3 µM (inactive) | 15.2 µM (inactive) | 16.1 µM (inactive) | 16.5 µM (inactive) | 12.5 µM (inactive) | 18.9 µM (inactive) | 11.9 µM (inactive) | 13.6 µM (inactive) | 3.7 µM (inactive) | 13.4 µM (inactive) | 15.8 µM (inactive) | 16.9 µM (inactive) | 5.01 µM (inactive) | 25.2 µM (inactive) | 2.59 µM (inactive) | – | –
14 | CCOC(=O)c1c(N2CCOCC2)[nH]c(=O)c(C(c2ccc(Cl)c([N+](=O)[O-])c2)c2c(O)c(C(=O)OCC)c(N3CCOCC3)[nH]c2=O)c1O | 24.3 µM (inactive) | > 100 µM (inactive) | 15.2 µM (inactive) | > 100 µM (inactive) | 26.1 µM (inactive) | > 100 µM (inactive) | 36.1 µM (inactive) | > 100 µM (inactive) | 22.9 µM (inactive) | 19.5 µM (inactive) | 25.2 µM (inactive) | 39.9 µM (inactive) | 44.2 µM (inactive) | 14.2 µM (inactive) | > 100 µM (inactive) | 39 µM (inactive) | 19.7 µM (inactive) | – | –
15 | C[C@@]12CCCC(=O)N1[C@@H](CO)C(c1ccccc1)O2 (some centres undefined) | > 100 µM (inactive) | – | – | – | – | > 100 µM (inactive) | – | > 100 µM (inactive) | – | > 100 µM (inactive) | – | > 100 µM (inactive) | > 100 µM (inactive) | – | > 100 µM (inactive) | – | – | > 100 µM (inactive) | > 100 µM (inactive)
16 | C[n+]1c(-c2ccc(NC(=O)c3ccc(C(=O)Nc4ccc(-c5cn6ccccc6[n+]5C)cc4)cc3)cc2)cn2ccccc21 | 43.1 µM (inactive) | > 100 µM (inactive) | > 42.9 µM (inactive) | > 100 µM (inactive) | > 69.8 µM (inactive) | > 100 µM (inactive) | 18.5 µM (inactive) | > 100 µM (inactive) | > 100 µM (inactive) | > 100 µM (inactive) | > 67.9 µM (inactive) | > 100 µM (inactive) | > 100 µM (inactive) | > 100 µM (inactive) | > 56.2 µM (inactive) | > 100 µM (inactive) | > 100 µM (inactive) | – | –
